In patent US10377773B2, “Isothiazolopyrimidinones, pyrazolopyrimidinones, and pyrrolopyrimidinones as ubiquitin-specific protease 7 inhibitors” (FORMA Therapeutics, Inc., priority 2015, dated 2019):

The compounds below were run against T1, USP7 (Homo sapiens, UniProt Q93009) (assay: USP7 Assay A and B (Ubiquitin-Rhodamine 110 assay)). Conditions: Ub-Rh110 substrate 25 nM, read-out: USP7_IC50.
T1 construct: USP7, construct USP7 (208-1102) 6*His, Viva Biotech; initiator Met (N); TEV site (C); 6*His (C); purchased Viva Biotech
T1 sequence (Q93009 208-1102): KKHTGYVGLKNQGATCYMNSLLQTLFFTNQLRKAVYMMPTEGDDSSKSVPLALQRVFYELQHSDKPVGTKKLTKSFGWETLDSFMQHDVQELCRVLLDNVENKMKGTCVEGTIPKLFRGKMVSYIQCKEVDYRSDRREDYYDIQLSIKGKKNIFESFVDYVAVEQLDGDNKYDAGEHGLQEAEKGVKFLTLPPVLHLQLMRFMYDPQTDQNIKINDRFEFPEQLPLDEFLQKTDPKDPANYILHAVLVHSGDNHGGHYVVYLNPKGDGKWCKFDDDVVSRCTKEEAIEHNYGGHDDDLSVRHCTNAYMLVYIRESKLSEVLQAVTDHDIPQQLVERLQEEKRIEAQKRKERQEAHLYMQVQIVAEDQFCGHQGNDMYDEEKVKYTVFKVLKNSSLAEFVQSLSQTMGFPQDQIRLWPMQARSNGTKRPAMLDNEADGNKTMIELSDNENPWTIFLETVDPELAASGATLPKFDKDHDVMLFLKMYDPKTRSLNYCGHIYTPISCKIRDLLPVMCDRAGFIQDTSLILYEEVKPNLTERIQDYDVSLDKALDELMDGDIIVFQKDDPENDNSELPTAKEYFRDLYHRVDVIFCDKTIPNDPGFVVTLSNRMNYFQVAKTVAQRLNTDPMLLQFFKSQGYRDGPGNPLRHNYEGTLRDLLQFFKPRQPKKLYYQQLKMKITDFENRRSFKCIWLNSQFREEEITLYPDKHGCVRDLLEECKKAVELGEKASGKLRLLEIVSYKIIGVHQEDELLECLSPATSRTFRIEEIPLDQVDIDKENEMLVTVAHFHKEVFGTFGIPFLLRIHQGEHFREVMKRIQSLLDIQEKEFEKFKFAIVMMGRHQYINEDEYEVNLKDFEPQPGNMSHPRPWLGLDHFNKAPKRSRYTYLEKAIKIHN
Type: biochemical
Protocol: Each assay was performed in a final volume of 15 μL in assay buffer containing 20 mM Tris-HCl (pH 8.0, (1M Tris-HCl, pH 8.0 solution; Corning 46-031-CM)), 1 mM GSH (L-Glutathione reduced; Sigma #G4251), 0.03% BGG (0.22 μM filtered, Sigma, #G7516-25G), and 0.01% Triton X-100 (Sigma, #T9284-10L). Nanoliter quantities of either an 8-point or 10-point, 3-fold serial dilution in DMSO was pre-dispensed into assay plates (Perkin Elmer, ProxiPlate-384 F Plus, #6008269) for a final test concentration range of either 25 μM to 11 nM or 25 μM to 1.3 nM, respectively. The final concentration of the enzyme (USP7, construct USP7 (208-1102) 6*His, Viva Biotech) in the assay was 62.5 pM. Final substrate (Ub-Rh110; Ubiquitin-Rhodamine 110, R&D Systems #U-555) concentration was 25 nM with [Ub-Rh110]<<Km. 5 μL of 2× enzyme was added to the assay plates (pre-stamped with compound) and preincubated with USP7 for 30 min. 5 μL of 2×Ub-Rh110 was then added to assay plates. Plates were incubated stacked for 20 min at room temperature before 5 μL of stop solution (final concentration of 10 mM citric acid in assay buffer (Sigma, #251275-500G)). Fluorescence was read on the Envision (Excitation at 485 nm and Emission at 535 nm; Perkin Elmer) or on the PheraSTAR (Excitation at 485 nm and Emission at 535 nm; BMG Labtech).
Each assay was performed in a final volume of 20 μL in assay buffer containing 20 mM Tris-HCl (pH 8.0, (1M Tris-HCl, pH 8.0 solution; Corning 46-031-CM)), 2 mM CaCl2 (1M calcium chloride solution; Sigma #21114), 1 mM GSH (L-Glutathione reduced; Sigma #G4251), 0.01% Prionex (0.22 μM filtered, Sigma #G-0411), and 0.01% Triton X-100. Stock compound solutions were stored at −20° C. as 10 mM in DMSO. Up to 1 month prior to the assay, 2 mM test compounds were pre-dispensed into assay plates (Black, low volume; Corning #3820) and frozen at −20° C. Prestamped assay plates were allowed to warm to room temperature on the day of the assay. For the screen, 100 nL of 2 mM was pre-dispensed for a final screening concentration of 10 μM (DMSO(fc)=0.5%). For follow-up studies, 250 nL of an 8-point, 3-fold serial dilution in DMSO was pre-dispensed into assay plates for a final test concentration of 25 μM-11 nM (1.25c % DMSO final concentration). Unless otherwise indicated, all follow-up assays were run on triplecate plates. Enzyme (USP7, construct Met (208-1102)-TEV-6*His; Viva Q93009-1) concentration and incubation times were optimized for the maximal signal-to-background while maintaining initial velocity conditions at a fixed substrate concentration. The final concentration of the enzyme in the assay was either 75 pM or 250 pM. Final substrate (Ub-Rh110; Ubiquitin-Rhodamine 110, R&D Systems (biotechne)#U-555) concentration was 25 nM with [Ub-Rh110]<<Km. Compounds were either not preincubated or preincubated with USP7 between 30 to 120 min prior to the addition of 10 μL of 2×Ub-Rh110 to compound plates. Plates were incubated stacked for either 23 or 45 min at room temperature before fluorescence was read on the Envision (Excitation at 485 nm and Emission at 535 nm; Perkin Elmer) or on the PheraSTAR (Excitation at 485 nm and Emission at 535 nm; BMG Labtech).
Data from USP7 Assays A and B were reported as percent inhibition (inh) compared with control wells based on the following equation: % inh=1−((FLU−AveLow)/(AveHigh−AveLow)) where FLU=measured Fluorescence, AveLow=average Fluorescence of no enzyme control (n=16), and AveHigh=average Fluorescence of DMSO control (n=16). IC50 values were determined by curve fitting of the standard 4 parameter logistic fitting algorithm included in the Activity Base software package: IDBS XE Designer Model205. Data was fitted using the Levenburg Marquardt algorithm.
`C[C@@H](CC(=O)N1CCC(O)(Cn2cnc3c(-c4ccccc4)nsc3c2=O)CC1)c1ccccc1` [Compound I-12, 6-({4-hydroxy-1-[(3 S)-3-phenylbutanoyl]piperidin-4-yl}methyl)-3-phenyl-6H,7H-[1,2]thiazolo[4,5-d]pyrimidin-7-one] showed an IC50 of less than 500 nM.
Work on `O=C(c1ccc(F)cc1)N1CCC(O)(Cn2cnc3c(-c4ccc(F)cc4)n[nH]c3c2=O)CC1` [Compound I-5, 6-{[1-(4-fluorobenzoyl)-4-hydroxypiperidin-4-yl]methyl}-3-(4-fluorophenyl)-1H,6H,7H-pyrazolo[4,3-d]pyrimidin-7-one] yielded an IC50 of 500 to 1000 nM.
For `O=C(C[C@H](c1ccccc1)C(F)F)N1CCC(O)(Cn2cnc3c(-c4ccccc4)nsc3c2=O)CC1` [Compound I-18, 6-({1-[(3R)-4,4-difluoro-3-phenylbutanoyl]-4-hydroxypiperidin-4-yl}methyl)-3-phenyl-6H,7H-[1,2]thiazolo[4,5-d]pyrimidin-7-one], the IC50 was greater than 10000 nM.
In the case of `C[C@H](CC(=O)N1CCC(O)(Cn2cnc3cc[nH]c3c2=O)CC1)c1ccccc1` [Compound I-28, 3-({4-hydroxy-1-[(3R)-3-phenylbutanoyl]piperidin-4-yl}methyl)-3H,4H,5H-pyrrolo[3,2-d]pyrimidin-4-one], the IC50 is reported as less than 500 nM.
Work on `CC(CC(=O)N1CCC(O)(Cn2cnc3c(-c4ccccc4)nsc3c2=O)CC1)n1cccn1` (stereo not shown) [Compound I-14, 6-({4-hydroxy-1-[3-(1H-pyrazol-1-yl)butanoyl]piperidin-4-yl}methyl)-3-phenyl-6H,7H-[1,2]thiazolo[4,5-d]pyrimidin-7-one] yielded an IC50 of 1000 to 10000 nM.
`COc1ccc(C(=O)N2CCC(O)(Cn3cnc4c(-c5ccc(F)cc5)n[nH]c4c3=O)CC2)cc1` [Compound I-20, 3-(4-fluorophenyl)-6-{[4-hydroxy-1-(4-methoxybenzoyl)piperidin-4-yl]methyl}-1H, 6H,7H-pyrazolo[4,3-d]pyrimidin-7-one] showed an IC50 of 1000 to 10000 nM.
Work on `O=C(c1ccc(F)cc1)N1CCC(O)(Cn2cnc3c(-c4ccc(F)cc4)nsc3c2=O)CC1` [Compound I-30, 6-{[1-(4-fluorobenzoyl)-4-hydroxypiperidin-4-yl]methyl}-3-(4-fluorophenyl)-6H,7H-[1,2]thiazolo[4,5-d]pyrimidin-7-one] yielded an IC50 greater than 10000 nM.
`O=C(c1ccccc1)N1CCC(O)(Cn2cnc3c(-c4ccccc4)n[nH]c3c2=O)CC1` [Compound I-29, 6-[(1-benzoyl-4-hydroxypiperidin-4-yl)methyl]-3-phenyl-1H,6H,7H-pyrazolo[4,3-d]pyrimidin-7-one] was tested, and the IC50 was 500 to 1000 nM.
In the case of `COc1ccc(C(=O)N2CCC(O)(Cn3cnc4c(-c5ccc(CO)cc5)nsc4c3=O)CC2)cc1` [Compound I-24, 6-{[4-hydroxy-1-(4-methoxybenzoyl)piperidin-4-yl]methyl}-3-[4-(hydroxymethyl)phenyl]-6H,7H-[1,2]thiazolo[4,5-d]pyrimidin-7-one], the IC50 is reported as 1000 to 10000 nM.
`C[C@H](CC(=O)N1CCC(O)(Cn2cnc3c(-c4ccccc4)nsc3c2=O)CC1)n1cccn1` [Compound I-16, 6-({4-hydroxy-1-[(3R)-3-(1H-pyrazol-1-yl)butanoyl]piperidin-4-yl}methyl)-3-phenyl-6H,7H-[1,2]thiazolo[4,5-d]pyrimidin-7-one] was tested, and the IC50 was 1000 to 10000 nM.
For `COc1ccc(-c2nsc3c(=O)n(CC4(O)CCN(C(=O)c5ccc(F)cc5)CC4)cnc23)cc1` [Compound I-2, 6-{[1-(4-fluorobenzoyl)-4-hydroxypiperidin-4-yl]methyl}-3-(4-methoxyphenyl)-6H,7H-[1,2]thiazolo[4,5-d]pyrimidin-7-one], the IC50 was 1000 to 10000 nM.
`COc1ccc(C(=O)N2CCC(O)(Cn3cnc4c(-c5ccccc5)n[nH]c4c3=O)CC2)cc1` [Compound I-7, 6-{[4-hydroxy-1-(4-methoxybenzoyl)piperidin-4-yl]methyl}-3-phenyl-1H,6H,7H-pyrazolo[4,3-d]pyrimidin-7-one] showed an IC50 of 1000 to 10000 nM.
Work on `CN1CCN(c2ccc(C(=O)N3CCC(O)(Cn4cnc5c(-c6ccc(F)cc6)nsc5c4=O)CC3)nc2)CC1` [Compound I-10, 3-(4-fluorophenyl)-6-({4-hydroxy-1-[5-(4-methylpiperazin-1-yl)pyridine-2-carbonyl]piperidin-4-yl}methyl)-6H,7H-[1,2]thiazolo[4,5-d]pyrimidin-7-one] yielded an IC50 greater than 10000 nM.
`O=C(c1ccc(F)cc1)N1CCC(O)(Cn2cnc3c(-c4ccccc4)nsc3c2=O)CC1` [Compound I-1, 6-{[1-(4-fluorobenzoyl)-4-hydroxypiperidin-4-yl]methyl}-3-phenyl-6H,7H-[1,2]thiazolo[4,5-d]pyrimidin-7-one] was tested, and the IC50 was greater than 10000 nM.
For `CC(CC(=O)N1CCC(O)(Cn2cnc3c(-c4ccccc4)nsc3c2=O)CC1)c1ccccc1` (stereo not shown) [Compound I-11, 6-{[4-hydroxy-1-(3-phenylbutanoyl)piperidin-4-yl]methyl}-3-phenyl-6H,7H-[1,2]thiazolo[4,5-d]pyrimidin-7-one], the IC50 was 500 to 1000 nM.
Compound `C[C@@H](CC(=O)N1CCC(O)(Cn2cnc3c(-c4ccccc4)nsc3c2=O)CC1)n1cccn1` [Compound I-15, 6-({4-hydroxy-1-[(3 S)-3-(1H-pyrazol-1-yl)butanoyl]piperidin-4-yl}methyl)-3-phenyl-6H,7H-[1,2]thiazolo[4,5-d]pyrimidin-7-one] has an IC50 of 1000 to 10000 nM.
With `COc1ccc(C(=O)N2CCC(O)(Cn3cnc4c(-c5ccccc5)nsc4c3=O)CC2)cc1` [Compound I-8, 6-{[4-hydroxy-1-(4-methoxybenzoyl)piperidin-4-yl]methyl}-3-phenyl-6H,7H-[1,2]thiazolo[4,5-d]pyrimidin-7-one] the IC50 was 1000 to 10000 nM.
Work on `O=C1NCCN1CCOc1cccc(-c2nsc3c(=O)n(CC4(O)CCN(C(=O)C5CC5)CC4)cnc23)c1` [Compound I-27, 1-[2-(3-{6-[(1-cyclopropanecarbonyl-4-hydroxypiperidin-4-yl)methyl]-7-oxo-6H,7H-[1,2]thiazolo[4,5-d]pyrimidin-3-yl}phenoxy)ethyl]imidazolidin-2-one] yielded an IC50 of 1000 to 10000 nM.
For `CN(C)C(=O)N1CCC(O)(Cn2cnc3c(-c4ccc(F)c(N5CCNCC5)c4)nsc3c2=O)CC1` [Compound I-22, 4-({3-[4-fluoro-3-(piperazin-1-yl)phenyl]-7-oxo-6H,7H-[1,2]thiazolo[4,5-d]pyrimidin-6-yl}methyl)-4-hydroxy-N,N-dimethylpiperidine-1-carboxamide], the IC50 was 1000 to 10000 nM.
`COc1ccc(C(=O)N2CCC(O)(Cn3cnc4c(-c5ccc(OC)cc5)nsc4c3=O)CC2)cc1` [Compound I-31, 6-{[4-hydroxy-1-(4-methoxybenzoyl)piperidin-4-yl]methyl}-3-(4-methoxyphenyl)-6H,7H-[1,2]thiazolo[4,5-d]pyrimidin-7-one] was tested, and the IC50 was 1000 to 10000 nM.
In the case of `O=C(c1ccc(F)cc1)N1CCC(O)(Cn2cnc3c(-c4ccc(CO)cc4)nsc3c2=O)CC1` [Compound I-23, 6-{[1-(4-fluorobenzoyl)-4-hydroxypiperidin-4-yl]methyl}-3-[4-(hydroxymethyl)phenyl]-6H,7H-[1,2]thiazolo[4,5-d]pyrimidin-7-one], the IC50 is reported as 1000 to 10000 nM.
For `CN(C)C(=O)N1CCC(O)(Cn2cnc3c(-c4ccc(NCCN5CCCCC5)cc4)nsc3c2=O)CC1` [Compound I-26, 4-hydroxy-N,N-dimethyl-4-{[7-oxo-3-(4-{[2-(piperidin-1-yl)ethyl]amino}phenyl)-6H,7H-[1,2]thiazolo[4,5-d]pyrimidin-6-yl]methyl}piperidine-1-carboxamide], the IC50 was 1000 to 10000 nM.
